This experiment relates to P388 leukemia ip, CD2F1 mice, survival T/C. Put plainly: NCI In Vivo Anticancer Drug Screen. Data for tumor model P388 Leukemia (intraperitoneal) in CD2F1 (CDF1) mice. The conditions noted are these: endpoint: median survival time, higher = longer survival. Summed up: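 Mice carrying the transplanted tumor received test compound or vehicle. Survival was recorded in each group, and the value is the treated-group measurement divided by that of the vehicle-treated control group.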

Setting [1] is: dose: 50.0 mg/kg/injection, schedule: Q01DX005 (ip), vehicle: Klucel (hydroxypropylcellulose) (HPC).
Where [2] appears, read: dose: 3.13 mg/kg/injection, schedule: Q01DX009 (ip), vehicle: saline with Tween-80.
Setting [3] is: dose: 25.0 mg/kg/injection, schedule: Q01DX009 (ip), vehicle: other.
Setting [4] is: dose: 50.0 mg/kg/injection, schedule: Q01DX009 (ip), vehicle: other.
The mark [5] stands for this setting: dose: 100.0 mg/kg/injection, schedule: Q01DX009 (ip), vehicle: other.
[6] abbreviates: dose: 200.0 mg/kg/injection, schedule: Q01DX009 (ip), vehicle: other.
The mark [7] stands for this setting: dose: 400.0 mg/kg/injection, schedule: Q01DX009 (ip), vehicle: other.
Where [8] appears, read: dose: 50.0 mg/kg/injection, schedule: Q01DX009 (ip), vehicle: saline with Tween-80.
Where [9] appears, read: dose: 100.0 mg/kg/injection, schedule: Q01DX009 (ip), vehicle: saline with Tween-80.
[10] abbreviates: dose: 200.0 mg/kg/injection, schedule: Q01DX009 (ip), vehicle: saline with Tween-80.

Where “and” joins values, the source holds several entries; their conditions need not be identical. Equal entries are not always repeated. Toxic doses and inconclusive results are not listed.

Consider `NS(=O)(=O)c1ccc(NC(=S)Nc2ccccc2C(F)(F)F)cc1`, for which the T/C is 92 % of control (dose: 50.0 mg/kg/injection, schedule: Q01DX009 (ip), vehicle: gum acacia); 109 % of control (dose: 100.0 mg/kg/injection, schedule: Q01DX009 (ip), vehicle: gum acacia); 100 % of control (dose: 200.0 mg/kg/injection, schedule: Q01DX009 (ip), vehicle: gum acacia).
Take `C=C(C(=O)O)C(N)C(=O)O` (stereo not drawn): the T/C (dose: 25.0 mg/kg/injection, schedule: Q01DX005 (ip), vehicle: saline) was 98 % of control; the T/C (dose: 50.0 mg/kg/injection, schedule: Q01DX005 (ip), vehicle: saline) was 98 % of control; the T/C (dose: 100.0 mg/kg/injection, schedule: Q01DX005 (ip), vehicle: saline) was 112 % of control; the T/C (dose: 200.0 mg/kg/injection, schedule: Q01DX005 (ip), vehicle: saline) was 97 % of control; the T/C (dose: 400.0 mg/kg/injection, schedule: Q01DX005 (ip), vehicle: saline) is 96 % of control.
As for `CCC1(O)C(=O)OCc2c1cc1n(c2=O)Cc2cc3cc4c(cc3nc2-1)OCO4` (stereo not drawn), the T/C is, setting by setting: (dose: 1.0 mg/kg/injection, schedule: Q01DX005 (ip), vehicle: saline with Tween-80) 177 % of control; (dose: 2.0 mg/kg/injection, schedule: Q01DX005 (ip), vehicle: saline with Tween-80) 86 % of control.
Take `FC(F)(F)c1ccc2[nH]c3c(c2c1)CCCC3`: the T/C was 102 % of control (dose: 100.0 mg/kg/injection, schedule: Q01DX001 (ip), vehicle: saline with Tween-80); 102 % of control (dose: 200.0 mg/kg/injection, schedule: Q01DX001 (ip), vehicle: saline with Tween-80); 103 % of control (dose: 400.0 mg/kg/injection, schedule: Q01DX001 (ip), vehicle: saline with Tween-80).
With `CC1=NN(C(=O)c2ccccn2)C(=O)C1N=Nc1ccc(S(=O)(=O)Nc2ncccn2)cc1` (stereo not drawn), the T/C is 102 % of control (dose: 60.0 mg/kg/injection, schedule: Q01DX005 (ip), vehicle: saline with Tween-80); 105 % of control (dose: 120.0 mg/kg/injection, schedule: Q01DX005 (ip), vehicle: saline with Tween-80); 94 % of control (dose: 240.0 mg/kg/injection, schedule: Q01DX005 (ip), vehicle: saline with Tween-80).
As to `Cc1ccc(NCCNCCO)c2c(=O)c3ccccc3sc12`, the T/C is 100 % of control (dose: 3.75 mg/kg/injection, schedule: Q01DX009 (ip), vehicle: water); 113 % of control (dose: 7.5 mg/kg/injection, schedule: Q01DX009 (ip), vehicle: distilled water + Tween-80); 99 % of control (dose: 7.5 mg/kg/injection, schedule: Q01DX009 (ip), vehicle: water); 113 % of control (dose: 12.5 mg/kg/injection, schedule: Q01DX005 (ip), vehicle: other); 120 % of control (dose: 15.0 mg/kg/injection, schedule: Q01DX009 (ip), vehicle: distilled water + Tween-80); 123 % of control (dose: 15.0 mg/kg/injection, schedule: Q01DX009 (ip), vehicle: water). Besides, the T/C is, setting by setting: (dose: 25.0 mg/kg/injection, schedule: Q01DX005 (ip), vehicle: other) 120 % of control; under setting [1], 119 % of control; (dose: 100.0 mg/kg/injection, schedule: Q01DX005 (ip), vehicle: Klucel (hydroxypropylcellulose) (HPC)) 158 % of control; (dose: 200.0 mg/kg/injection, schedule: Q01DX005 (ip), vehicle: Klucel (hydroxypropylcellulose) (HPC)) 155 % of control.
Consider `COc1cc(OC)c(/C=C/c2c3ccccc3cc[n+]2C)c(OC)c1`, for which the T/C (dose: 0.39 mg/kg/injection, schedule: Q01DX009 (ip), vehicle: saline with Tween-80) is 108 % of control; the T/C (dose: 0.78 mg/kg/injection, schedule: Q01DX009 (ip), vehicle: saline with Tween-80) was 121 % of control; the T/C under setting [2] was 152 % of control.
In the case of `COC1(C2COc3cc(OCc4ccccc4)ccc3C2=O)C=C2OCOC2=CC1=O` (stereo not drawn), the T/C was 99 % of control (dose: 12.5 mg/kg/injection, schedule: Q01DX005 (ip), vehicle: Klucel (hydroxypropylcellulose) (HPC)); 96 % of control (dose: 25.0 mg/kg/injection, schedule: Q01DX005 (ip), vehicle: Klucel (hydroxypropylcellulose) (HPC)); 89 % of control under setting [1].
With `O=C1c2c(c(Cl)c3ccccc3c2O)C(=O)C2C3C=CC(C3)C12` (stereo not drawn), the T/C (dose: 50.0 mg/kg/injection, schedule: Q01DX005 (ip), vehicle: saline with Tween-80) was 96 % of control; the T/C (dose: 100.0 mg/kg/injection, schedule: Q01DX005 (ip), vehicle: saline with Tween-80) is 89 % of control; the T/C (dose: 200.0 mg/kg/injection, schedule: Q01DX005 (ip), vehicle: saline with Tween-80) was 89 % of control.
For `CCCCCCCCCCCC(=O)/C=C/c1ccc(Cl)c(Cl)c1`, the T/C is 102 % of control (dose: 50.0 mg/kg/injection, schedule: Q01DX009 (ip), vehicle: Klucel (hydroxypropylcellulose) (HPC)) and 90 % of control (dose: 100.0 mg/kg/injection, schedule: Q01DX009 (ip), vehicle: Klucel (hydroxypropylcellulose) (HPC)).
In the case of `O=P(N1CC1)(N1CC1)N1CC2CCC(CC2)C1`, the T/C is 109 % of control under setting [2]; 154 % of control (dose: 6.25 mg/kg/injection, schedule: Q01DX009 (ip), vehicle: saline with Tween-80); 204 % of control (dose: 12.5 mg/kg/injection, schedule: Q01DX009 (ip), vehicle: saline with Tween-80); 159 % of control (dose: 12.5 mg/kg/injection, schedule: Q01DX009 (ip), vehicle: saline); 120 % of control (dose: 12.5 mg/kg/injection, schedule: Q04DX003 (ip), vehicle: saline); 118 % of control (dose: 25.0 mg/kg/injection, schedule: Q01DX009 (ip), vehicle: saline). Moreover, the T/C runs as follows: (dose: 25.0 mg/kg/injection, schedule: Q04DX003 (ip), vehicle: saline) 166 % of control; (dose: 50.0 mg/kg/injection, schedule: Q04DX003 (ip), vehicle: saline) 154 % of control.
Regarding `CCOC(=O)N1C(=O)C=CC1=O`, the T/C was 106 % of control (dose: 18.75 mg/kg/injection, schedule: Q01DX009 (ip), vehicle: saline with Tween-80); 104 % of control (dose: 37.5 mg/kg/injection, schedule: Q01DX009 (ip), vehicle: saline with Tween-80); 105 % of control and 91 % of control (dose: 75.0 mg/kg/injection, schedule: Q01DX009 (ip), vehicle: saline with Tween-80); 113 % of control (dose: 150.0 mg/kg/injection, schedule: Q01DX009 (ip), vehicle: saline with Tween-80).
`COCC1(C)CCCC2(C)C3=C(CCC(O)C3)CCC12` (stereo not drawn): the T/C (dose: 100.0 mg/kg/injection, schedule: Q04DX003 (ip), vehicle: saline) was 99 % of control; the T/C (dose: 200.0 mg/kg/injection, schedule: Q04DX003 (ip), vehicle: saline) is 99 % of control; the T/C (dose: 400.0 mg/kg/injection, schedule: Q04DX003 (ip), vehicle: saline) was 97 % of control.
On to `O=C(c1cc2c(cc1Br)OCO2)N1CCCc2ccccc21`, for which the T/C under setting [3] was 100 % of control; the T/C under setting [4] was 97 % of control; the T/C under setting [5] was 102 % of control; the T/C under setting [6] was 97 % of control; the T/C under setting [7] is 93 % of control.
Regarding `O=C1CC2CCCCC2CC1c1ccc(OCc2ccccc2)c(OCc2ccccc2)c1` (stereo not drawn), the T/C is, setting by setting: under setting [8], 91 % of control; under setting [9], 97 % of control; under setting [10], 103 % of control.
Take `CCOC(=O)CCC1CCCC(CCC(=O)OCC)C1=O` (stereo not drawn): the T/C under setting [4] is 105 % of control, the T/C under setting [5] was 101 % of control and the T/C under setting [6] is 106 % of control.
As to `OCC1CC=CCC1CO` (stereo not drawn), the T/C by setting is: under setting [8], 96 % of control; under setting [9], 101 % of control; under setting [10], 100 % of control.
Take `COc1cccc2c1C(=O)c1c(O)c3c(c(O)c1C2=O)CC(O)(C(C)=O)CC3O` (stereo not drawn): the T/C reads like this: (dose: 6.25 mg/kg/injection, schedule: Q01DX009 (ip), vehicle: other) 100 % of control; (dose: 12.5 mg/kg/injection, schedule: Q01DX009 (ip), vehicle: other) 92 % of control; under setting [3], 91 % of control; under setting [4], 91 % of control; under setting [5], 119 % of control; under setting [6], 92 % of control. Further, under setting [7], the T/C was 98 % of control.

(Values after PubChem BioAssay AID330 (DTP/NCI, 2004).)
